This is an account of results in patent publication US11331327B2, “Antibacterial use of halogenated salicylanilides” (UNION therapeutics A/S, priority 2014, dated 2022).

In general, MIC refers to the smallest concentration in the dilution series that meets the test's criterion for growth inhibition. Higher therefore signals a less susceptible organism.

Values after ≈ are worked out from the molar mass of the structure shown.

In this assay the test system is MRSA 01. The assay is described as follows: Effect of pH on the antibacterial activity (MIC) of niclosamide. The following applies: for MIC: Staphylococcus aureus, MRSA. Type of assay: cell-based, Staphylococcus aureus. How it is done: This strain was conserved in Luria Bertani (LB) Broth supplemented with glycerol 15% (v/v) at −80° C., and reactivated by isolation on LB agar plates. It was then cultivated aerobically in Mueller Hinton (MH) Broth-cation adjusted at 37° C.
The pH of Mueller-Hinton Broth cation-adjusted was adjusted with HCl 2M to 7, 6.5, 6, 5.5, 5, 4.5 and […]. Ten ml of medium for each pH were prepared. pH of non-adjusted MHBII was equal to 7.4.
Each pH-adjusted samples were filtered on 0.2 μm filters before being used for the MIC determination assay.
Bacterial culture was stopped in its exponential growth phase and plates were inoculated with the approximate concentration of 5×10^5 cells per well. Plates were incubated at 37° C. for 18 hours (S. aureus).
The experiment was performed in triple biological replicates.

As for `O=C(Nc1ccc([N+](=O)[O-])cc1Cl)c1cc(Cl)ccc1O` [Niclosamide, 5-chloro-N-(2-chloro-4-nitrophenyl)-2-hydroxybenz-amide], the “inhibitory activity against MRSA 01 as a function of pH” value (MRSA 01, pH 7.4 to 5.5) is listed as “increased when pH was decreased”. Besides, where the note is “MRSA 01, pH-adjusted Mueller-Hinton Broth”, the “pH at which the maximal inhibitory effect was observed” value amounted to 5.5. Besides, the MIC is ≤ 0.008 µg/mL (MRSA 01, pH 5.5 (actual pH 5.530), Replicate 3); ≤ 0.008 µg/mL (MRSA 01, pH 5.5 (actual pH 5.547), Replicate 2); ≤ 0.03 µg/mL (MRSA 01, pH 5.5 (actual pH 5.569), Replicate 1); 0.06 µg/mL (≈ 0.183 µM) (MRSA 01, pH 6.0 (actual pH 5.893), Replicate 1); 0.06 µg/mL (≈ 0.183 µM) (MRSA 01, pH 6.0 (actual pH 5.955), Replicate 2); 0.016 µg/mL (≈ 0.0489 µM) (MRSA 01, pH 6.0 (actual pH 5.980), Replicate 3). Moreover, the MIC runs as follows: (MRSA 01, pH 6.5 (actual pH 6.512), Replicate 1) 0.125 µg/mL (≈ 0.382 µM); (MRSA 01, pH 6.5 (actual pH 6.540), Replicate 3) 0.03 µg/mL (≈ 0.0917 µM); (MRSA 01, pH 6.5 (actual pH 6.566), Replicate 2) 0.06 µg/mL (≈ 0.183 µM); (MRSA 01, pH 7.0 (actual pH 6.921), Replicate 1) 0.25 µg/mL (≈ 0.764 µM); (MRSA 01, pH 7.0 (actual pH 7.025), Replicate 3) 0.125 µg/mL (≈ 0.382 µM); (MRSA 01, pH 7.0 (actual pH 7.071), Replicate 2) 0.125 µg/mL (≈ 0.382 µM). The MIC reads like this: (pH 7.4, MRSA 01, pH not adjusted (actual pH 7.4), Replicate 1) 0.5 µg/mL (≈ 1.53 µM); (pH 7.4, MRSA 01, pH not adjusted (actual pH 7.4), Replicate 2) 0.25 µg/mL (≈ 0.764 µM); (pH 7.4, MRSA 01, pH not adjusted (actual pH 7.4), Replicate 3) 0.5 µg/mL (≈ 1.53 µM).
